From patent publication US9580416B2, “Inhibitors of Bruton's tyrosine kinase” (PHARMACYCLICS LLC, priority 2014, dated 2017)

Molecular target: Btk (Homo sapiens, UniProt Q06187)
Test: Btk kinase activity, TR-FRET assay
Format: biochemical
Conditions: read-out: Btk (IC50)
Description: Btk kinase activity is determined using a time-resolved fluorescence resonance energy transfer (TR-FRET) methodology. Measurements are performed in a reaction volume of 50 μL using 96-well assay plates. Kinase enzyme, inhibitor, ATP (at the Km for the kinase), and 1 […] (Biotin-AVLESEEELYSSARQ-NH2) are incubated in a reaction buffer composed of 20 mM Tris, 50 mM NaCl, MgCl2 (5-25 mM depending on the kinase), MnCl2 (0-10 mM), 1 mM DTT, 0.1 mM EDTA, 0.01% bovine serum albumin, 0.005% Tween-20, and 10% DMSO at pH 7.4 for one hour. The reaction is quenched by the addition of 1.2 equivalents of EDTA (relative to divalent cation) in 25 μL of 1× Lance buffer (Perkin-Elmer). Streptavidin-APC (Perkin-Elmer) and Eu-labeled p-Tyr100 antibody (Perkin-Elmer) in 1× Lance buffer are added in a 25 μL volume to give final concentrations of 100 nM and 2.5 nM, respectively, and the mixture is allowed to incubate for one hour. The TR-FRET signal is measured on a multimode plate reader with an excitation wavelength (λEx) of 330 nm and detection wavelengths (λEm) of 615 and 665 nm. Activity is determined by the ratio of the fluorescence at 665 nm to that at 615 nm. For each compound, enzyme activity is measured at various concentrations of compound. Negative control reactions are performed in the absence of inhibitor in replicates of six, and two no-enzyme controls are used to determine baseline fluorescence levels. Inhibition constants, Ki(app), ware obtained using the program BatchKi (Kuzmic et al. (2000), Anal. Biochem. 286:45-50). IC50s are obtained according to the equation: IC50={Ki(app)/(1+[ATP]/Km^ATP)}+[E]total/2;
For all kinases, [ATP]=Km^ATP, [Btk]total=0.5 nM and [Lck]total=6 nM.

Sequence of Btk (Q06187 whole entry): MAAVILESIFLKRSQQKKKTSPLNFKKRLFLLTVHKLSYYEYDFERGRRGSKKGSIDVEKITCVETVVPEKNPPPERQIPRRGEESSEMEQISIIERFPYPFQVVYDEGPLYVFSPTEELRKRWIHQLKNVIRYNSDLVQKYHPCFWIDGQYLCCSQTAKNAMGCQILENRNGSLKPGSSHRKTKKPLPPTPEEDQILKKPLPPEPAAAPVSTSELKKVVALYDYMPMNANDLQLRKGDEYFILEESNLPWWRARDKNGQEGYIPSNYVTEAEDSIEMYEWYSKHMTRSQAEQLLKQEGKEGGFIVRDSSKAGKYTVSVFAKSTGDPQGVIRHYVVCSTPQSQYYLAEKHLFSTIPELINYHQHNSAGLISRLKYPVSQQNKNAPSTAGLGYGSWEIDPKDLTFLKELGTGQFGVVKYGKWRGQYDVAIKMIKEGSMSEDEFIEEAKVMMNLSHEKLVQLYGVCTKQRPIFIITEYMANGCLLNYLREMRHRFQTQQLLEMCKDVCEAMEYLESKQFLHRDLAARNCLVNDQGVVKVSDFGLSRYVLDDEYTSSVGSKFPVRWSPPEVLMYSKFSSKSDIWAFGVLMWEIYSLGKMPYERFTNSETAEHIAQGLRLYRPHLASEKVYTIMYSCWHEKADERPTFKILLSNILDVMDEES

`C=CC(=O)N1CC[C@@H](N(C)c2n[nH]c3nccc(Oc4ccc(Cl)cc4)c23)C1` [compound 2, 1-[(3R)-3-{[4-(4-chlorophenoxy)-1H-pyrazolo[3,4-b]pyridin-3-yl](methyl)amino}pyrrolidin-1-yl]prop-2-en-1-one] and `C=CC(=O)N1CCC[C@@H](Nc2n[nH]c3nccc(Oc4ccc(C(=O)N(C)c5ncc(C)s5)cc4)c23)C1` [compound 211, N-methyl-N-(5-methyl-1,3-thiazol-2-yl)-4-[(3-{[(3R)-1-(prop-2-enoyl)piperidin-3-yl]amino}-1H-pyrazolo[3,4-b]pyridin-4-yl)oxy]benzamide] cannot be ordered by IC50: less than 100 nM for the first, less than 100 nM for the second.

First: CN(C)C/C=C/C(=O)N1CC[C@@H](Nc2n[nH]c3nccc(Oc4ccc(Oc5ccccc5)cc4C(N)=O)c23)C1 [compound 41]
Second: Cc1cnc(-c2cccc(Oc3ccnc4[nH]nc(N[C@@H]5CCCN(C(=O)/C=C/CN(C)C6CC6)C5)c34)c2)s1 [compound 150]
The IC50 of the first is lower: 100 to 1000 nM for the first, 1000 to 10000 nM for the second. The first is the more potent here.

`CN(C/C=C/C(=O)N1CC[C@@H](N(C(=O)/C=C/CN(C)C2CC2)c2n[nH]c3ncnc(Oc4ccc(Oc5ccccc5)cc4)c23)C1)C1CC1` [compound 49] and `CCC(=O)N1CCC[C@@H](N(C(=O)CC)c2n[nH]c3ncnc(Oc4ccc(Oc5ccccc5)cc4)c23)C1` [compound 52] fall in the same range of IC50: 100 to 1000 nM for the first, 100 to 1000 nM for the second.

First: Nc1ncnc2[nH]nc(-c3ccc(Oc4ccccc4)cc3)c12 [compound 121, 3-(4-phenoxyphenyl)-1H-pyrazolo[3,4-b]pyrimidin-4-amine]
Second: CN(C/C=C/C(=O)N1CC[C@@H](N2C(=O)CN(c3ccc(Oc4ccccc4)cc3)c3ccnc4[nH]nc2c34)C1)C1CC1 [compound 238]
The IC50 of the first is lower: less than 100 nM for the first, 100 to 1000 nM for the second.

`CCNC(=O)Nc1ccc(Oc2ccnc3[nH]nc(N[C@@H]4CCCN(C(=O)/C=C/CN(C)C5CC5)C4)c23)cc1` [compound 136] and `CC(C)NC(=O)Nc1ccc(Oc2ccnc3[nH]nc(N[C@@H]4CCCN(C(=O)/C=C/CN(C)C5CC5)C4)c23)cc1` [compound 147] cannot be ordered by IC50: greater than 10000 nM for the first, greater than 10000 nM for the second.

First: CN(C/C=C/C(=O)N1CCC[C@@H](Nc2n[nH]c3nccc(Oc4ccc(C(=O)Nc5cccc(C(F)(F)F)c5)cc4)c23)C1)C1CC1 [compound 138, 4-[(3-{[(3R)-1-[(2E)-4-[cyclopropyl(methyl)amino]but-2-enoyl]piperidin-3-yl]amino}-1H-pyrazolo[3,4-b]pyridin-4-yl)oxy]-N-[3-(trifluoromethyl)phenyl]benzamide]
Second: CN(C/C=C/C(=O)N1CCC[C@@H](Nc2n[nH]c3nccc(Oc4ccc(C(=O)Nc5cc(C(F)(F)F)ccn5)cc4)c23)C1)C1CC1 [compound 212, 4-[(3-{[(3R)-1-[(2E)-4-[cyclopropyl(methyl)amino]but-2-enoyl]piperidin-3-yl]amino}-1H-pyrazolo[3,4-b]pyridin-4-yl)oxy]-N-[4-(trifluoromethyl)pyridin-2-yl]benzamide]
The IC50 of the first is higher: 100 to 1000 nM for the first, less than 100 nM for the second. The second is the more potent here.

`Cc1cnc(NC(=O)[C@H]2CC[C@H](Oc3ccnc4[nH]nc(N[C@@H]5CCCN(C(=O)/C=C/CN(C)C6CC6)C5)c34)CC2)s1` [compound 152] and `Cc1nnc(NC(=O)c2ccc(Oc3ccnc4[nH]nc(N[C@@H]5CCCN(C(=O)/C=C/CN(C)C6CC6)C5)c34)cc2)s1` [compound 209, 4-[(3-{[(3R)-1-[(2E)-4-[cyclopropyl(methyl)amino]but-2-enoyl]piperidin-3-yl]amino}-1H-pyrazolo[3,4-b]pyridin-4-yl)oxy]-N-(5-methyl-1,3,4-thiadiazol-2-yl)benzamide] cannot be ordered by IC50: greater than 10000 nM for the first, greater than 10000 nM for the second.

Compared with `C=CC(=O)N1CCC[C@@H](Nc2n[nH]c3nccc(Oc4ccc(-c5cc(C(F)(F)F)ccn5)cc4)c23)C1` [compound 155], `C=CC(=O)N1CC[C@@H](Nc2n[nH]c3nccc(Oc4ccc(C(=O)Nc5cc(C(F)(F)F)ccn5)cc4)c23)C1` [compound 171] is lower in IC50: 100 to 1000 nM for the first, less than 100 nM for the second.

First: Cc1c[nH]c(NC(=O)c2ccc(Oc3ccnc4[nH]nc(N[C@@H]5CCCN(C(=O)/C=C/CN(C)C6CC6)C5)c34)cc2)n1 [compound 157]
Second: CN(C/C=C/C(=O)N1CCC[C@@H](Nc2n[nH]c3nccc(Oc4ccc(NC(=O)Nc5cc(C(F)(F)F)ccn5)cc4)c23)C1)C1CC1 [compound 214, 3-{4-[(3-{[(3R)-1-[(2E)-4-[cyclopropyl(methyl)amino]but-2-enoyl]piperidin-3-yl]amino}-1H-pyrazolo[3,4-b]pyridin-4-yl)oxy]phenyl}-1-[4-(trifluoromethyl)pyridin-2-yl]urea]
The IC50 of the first is higher: 1000 to 10000 nM for the first, 100 to 1000 nM for the second.

First: C=CC(=O)N1CCC[C@@H](Nc2n[nH]c3nccc(Oc4ccc(C(=O)N5CCCC(C(F)(F)F)C5)cc4)c23)C1 (stereo partly drawn) [compound 160]
Second: CC#CC(=O)N1CCC[C@@H](Nc2n[nH]c3nccc(Oc4ccc(C(=O)N5CCCC(C(F)(F)F)C5)cc4)c23)C1 (stereo partly drawn) [compound 163]
The IC50 of the first is lower: less than 100 nM for the first, 100 to 1000 nM for the second.

`C=CC(=O)N1CCC[C@@H](Nc2n[nH]c3nccc(Oc4ccc(C(=O)Nc5ncc(C#N)s5)cc4)c23)C1` [compound 166] and `CC#CC(=O)N1CCC[C@@H](Nc2n[nH]c3nccc(Oc4ccc(C(=O)Nc5ncc(C#N)s5)cc4)c23)C1` [compound 168] cannot be ordered by IC50: less than 100 nM for the first, less than 100 nM for the second.

`CC#CC(=O)N1CCC[C@@H](Nc2n[nH]c3nccc(Oc4ccc(-c5nc6ncccc6o5)cc4)c23)C1` [compound 170] and `C=CC(=O)N1CCC[C@@H](Nc2n[nH]c3nccc(Oc4ccc(-c5nc6ncccc6o5)cc4)c23)C1` [compound 213, 1-[(3R)-3-{[4-(4-{[1,3]oxazolo[4,5-b]pyridin-2-yl}phenoxy)-1H-pyrazolo[3,4-b]pyridin-3-yl]amino}piperidin-1-yl]prop-2-en-1-one] fall in the same range of IC50: 100 to 1000 nM for the first, 100 to 1000 nM for the second.

Compared with `CC#CC(=O)N1CC[C@@H](Nc2n[nH]c3nccc(Oc4ccc(C(=O)Nc5cc(C(F)(F)F)ccn5)cc4)c23)C1` [compound 174], `CC#CC(=O)N1CCC[C@@H](Nc2n[nH]c3nccc(Oc4ccc(-c5ccc(C(F)(F)F)cn5)cc4)c23)C1` [compound 206, 1-[(3R)-3-[(4-{4-[5-(trifluoromethyl)pyridin-2-yl]phenoxy}-1H-pyrazolo[3,4-b]pyridin-3-yl)amino]piperidin-1-yl]but-2-yn-1-one] is higher in IC50: less than 100 nM for the first, greater than 10000 nM for the second. The first is the more potent here.

First: CC#CC(=O)N1CCC[C@@H](Nc2n[nH]c3nccc(Oc4ccc(C(=O)Nc5nnc(C)s5)cc4)c23)C1 [compound 180]
Second: CC#CC(=O)N1CCC[C@@H](Nc2n[nH]c3nccc(Oc4ccc(C(=O)N(C)c5ncc(C)s5)cc4)c23)C1 [compound 210, 4-[(3-{[(3R)-1-(but-2-ynoyl)piperidin-3-yl]amino}-1H-pyrazolo[3,4-b]pyridin-4-yl)oxy]-N-methyl-N-(5-methyl-1,3-thiazol-2-yl)benzamide]
The IC50 of the first is higher: 1000 to 10000 nM for the first, 100 to 1000 nM for the second. The second is the more potent here.

Compared with `C=CC(=O)N1CCC[C@@H](Nc2n[nH]c3nccc(Oc4ccc(C(=O)Nc5ncc(C(F)(F)F)s5)cc4)c23)C1` [compound 208, 4-[(3-{[(3R)-1-(prop-2-enoyl)piperidin-3-yl]amino}-1H-pyrazolo[3,4-b]pyridin-4-yl)oxy]-N-[5-(trifluoromethyl)-1,3-thiazol-2-yl]benzamide], `CC(=O)N1CCN(C(=O)c2cccc(Oc3ccnc4[nH]nc(N[C@@H]5CCCNC5)c34)c2)CC1` [compound 257, (R)-1-(4-(3-(3-(piperidin-3-ylamino)-1H-pyrazolo[3,4-b]pyridin-4-yloxy)benzoyl)piperazin-1-yl)ethanone] is higher in IC50: less than 100 nM for the first, 100 to 1000 nM for the second. The first is the more potent here.

First: CN(C/C=C/C(=O)N1CC[C@@H](N2CC(=O)N(c3ccc(Oc4ccccc4)cc3)c3ccnc4[nH]nc2c34)C1)C1CC1 [compound 239]
Second: O=C(c1cccc(Oc2ccnc3[nH]nc(N[C@@H]4CCCNC4)c23)c1)N1CCCCC1 [compound 255, (R)-piperidin-1-yl(3-(3-(piperidin-3-ylamino)-1H-pyrazolo[3,4-b]pyridin-4-yloxy)phenyl)methanone]
The IC50 of the first is lower: less than 100 nM for the first, 100 to 1000 nM for the second. The first is the more potent here.

`Cc1cc(NC(=O)c2cccc(Oc3ccnc4[nH]nc(N[C@@H]5CCNC5)c34)c2)ccc1C(C)C` [compound 249, (R)—N-(4-isopropyl-3-methylphenyl)-3-(3-(pyrrolidin-3-ylamino)-1H-pyrazolo[3,4-b]pyridin-4-yloxy)benzamide] and `Cc1cc(NC(=O)c2cccc(Nc3ccnc4[nH]nc(N[C@@H]5CCCNC5)c34)c2)ccc1C(C)C` [compound 253, (R)—N-(4-isopropyl-3-methylphenyl)-3-(3-(piperidin-3-ylamino)-1H-pyrazolo[3,4-b]pyridin-4-ylamino)benzamide] fall in the same range of IC50: 100 to 1000 nM for the first, 100 to 1000 nM for the second.

`O=C(NC1CCCCC1)c1cccc(Oc2ccnc3[nH]nc(N[C@@H]4CCCNC4)c23)c1` [compound 254, (R)—N-cyclohexyl-3-(3-(piperidin-3-ylamino)-1H-pyrazolo[3,4-b]pyridin-4-yloxy)benzamide] and `O=C(c1cccc(Oc2ccnc3[nH]nc(N[C@@H]4CCCNC4)c23)c1)N1CCOCC1` [compound 256, (R)-morpholino(3-(3-(piperidin-3-ylamino)-1H-pyrazolo[3,4-b]pyridin-4-yloxy)phenyl)methanone] fall in the same range of IC50: 100 to 1000 nM for the first, 100 to 1000 nM for the second.
